Results from patent publication US20220411422A1, “ERBB RECEPTOR INHIBITORS” (Dizal (Jiangsu) Pharmaceutical Co., Ltd., priority 2018, published 2022).

Experiment: Clinical study on safety in patients with HER2+ MBC
Type: in vivo, human
Excerpt: […] All patients had prior anti-HER2 antibody and chemotherapy treatment. Majority of patients ([…]) also had prior anti-HER2 small molecule treatment.

[1] = 100 mg (N = 4), CTCAE Grade All
[2] = 200 mg (N = 5), CTCAE Grade All
[3] = HER2+ MBC patients, oral twice daily, doses tested
[4] = Total (N = 14), CTCAE Grade All

## COc1cc(O[C@H]2CCN(C)CC2(F)F)c2c(Nc3ccc(Oc4ccn5ncnc5c4)c(C)c3)ncnc2c1 (single isomer, unassigned) [Compound 6]
25 mg (N = 1), CTCAE Grade All
  TEAE Anaemia, patients: 0
  TEAE Aspartate aminotransferase increased, patients: 0
  TEAE Bilirubin conjugated increased, patients: 0
  TEAE Blood bilirubin increased, patients: 1
  TEAE Blood bilirubin unconjugated increased, patients: 1
  TEAE Blood creatinine increased, patients: 0
  TEAE Fatigue, patients: 0
  TEAE Haemoglobin decreased, patients: 0
  TEAE Headache, patients: 0
  TEAE Lipase increased, patients: 0
  TEAE Pain, patients: 0
  TEAE Platelet count decreased, patients: 0
  TEAE Proteinuria, patients: 0
  TEAE Vomiting, patients: 0
25 mg (N = 1), CTCAE Grade ≥3
  TEAE Anaemia, patients: 0
  TEAE Aspartate aminotransferase increased, patients: 0
  TEAE Bilirubin conjugated increased, patients: 0
  TEAE Blood bilirubin increased, patients: 0
  TEAE Blood bilirubin unconjugated increased, patients: 0
  TEAE Blood creatinine increased, patients: 0
  TEAE Fatigue, patients: 0
  TEAE Haemoglobin decreased, patients: 0
  TEAE Headache, patients: 0
  TEAE Lipase increased, patients: 0
  TEAE Pain, patients: 0
  TEAE Platelet count decreased, patients: 0
  TEAE Proteinuria, patients: 0
  TEAE Vomiting, patients: 0
50 mg (N = 4), CTCAE Grade All
  TEAE Anaemia, patients: 1
  TEAE Aspartate aminotransferase increased, patients: 1
  TEAE Bilirubin conjugated increased, patients: 0
  TEAE Blood bilirubin increased, patients: 0
  TEAE Blood bilirubin unconjugated increased, patients: 0
  TEAE Blood creatinine increased, patients: 1
  TEAE Fatigue, patients: 0
  TEAE Haemoglobin decreased, patients: 1
  TEAE Headache, patients: 1
  TEAE Lipase increased, patients: 2
  TEAE Pain, patients: 1
  TEAE Platelet count decreased, patients: 1
  TEAE Proteinuria, patients: 1
  TEAE Vomiting, patients: 0
50 mg (N = 4), CTCAE Grade ≥3
  TEAE Anaemia, patients: 0
  TEAE Aspartate aminotransferase increased, patients: 0
  TEAE Bilirubin conjugated increased, patients: 0
  TEAE Blood bilirubin increased, patients: 0
  TEAE Blood bilirubin unconjugated increased, patients: 0
  TEAE Blood creatinine increased, patients: 0
  TEAE Fatigue, patients: 0
  TEAE Haemoglobin decreased, patients: 0
  TEAE Headache, patients: 0
  TEAE Lipase increased, patients: 0
  TEAE Pain, patients: 0
  TEAE Platelet count decreased, patients: 0
  TEAE Proteinuria, patients: 0
  TEAE Vomiting, patients: 0
[1]
  TEAE Anaemia, patients: 2
  TEAE Aspartate aminotransferase increased, patients: 0
  TEAE Bilirubin conjugated increased, patients: 0
  TEAE Blood bilirubin increased, patients: 0
  TEAE Blood bilirubin unconjugated increased, patients: 0
  TEAE Blood creatinine increased, patients: 0
  TEAE Fatigue, patients: 1
  TEAE Haemoglobin decreased, patients: 0
  TEAE Headache, patients: 2
  TEAE Lipase increased, patients: 0
  TEAE Pain, patients: 0
  TEAE Platelet count decreased, patients: 1
  TEAE Proteinuria, patients: 0
  TEAE Vomiting, patients: 1
100 mg (N = 4), CTCAE Grade ≥3
  TEAE Anaemia, patients: 0
  TEAE Aspartate aminotransferase increased, patients: 0
  TEAE Bilirubin conjugated increased, patients: 0
  TEAE Blood bilirubin increased, patients: 0
  TEAE Blood bilirubin unconjugated increased, patients: 0
  TEAE Blood creatinine increased, patients: 0
  TEAE Fatigue, patients: 0
  TEAE Haemoglobin decreased, patients: 0
  TEAE Headache, patients: 0
  TEAE Lipase increased, patients: 0
  TEAE Pain, patients: 0
  TEAE Platelet count decreased, patients: 0
  TEAE Proteinuria, patients: 0
  TEAE Vomiting, patients: 0
[2]
  TEAE Anaemia, patients: 1
  TEAE Aspartate aminotransferase increased, patients: 1
  TEAE Bilirubin conjugated increased, patients: 2
  TEAE Blood bilirubin increased, patients: 2
  TEAE Blood bilirubin unconjugated increased, patients: 1
  TEAE Blood creatinine increased, patients: 1
  TEAE Fatigue, patients: 1
  TEAE Haemoglobin decreased, patients: 3
  TEAE Headache, patients: 1
  TEAE Lipase increased, patients: 1
  TEAE Pain, patients: 1
  TEAE Platelet count decreased, patients: 1
  TEAE Proteinuria, patients: 2
  TEAE Vomiting, patients: 2
200 mg (N = 5), CTCAE Grade ≥3
  TEAE Anaemia, patients: 0
  TEAE Aspartate aminotransferase increased, patients: 0
  TEAE Bilirubin conjugated increased, patients: 1
  TEAE Blood bilirubin increased, patients: 0
  TEAE Blood bilirubin unconjugated increased, patients: 0
  TEAE Blood creatinine increased, patients: 0
  TEAE Fatigue, patients: 0
  TEAE Haemoglobin decreased, patients: 0
  TEAE Headache, patients: 0
  TEAE Lipase increased, patients: 0
  TEAE Pain, patients: 0
  TEAE Platelet count decreased, patients: 0
  TEAE Proteinuria, patients: 0
  TEAE Vomiting, patients: 0
[3]
  dose limiting toxicities: no dose limiting toxicities observed
  tolerability: well tolerated
[4]
  TEAE Anaemia, patients: 4
  TEAE Aspartate aminotransferase increased, patients: 2
  TEAE Bilirubin conjugated increased, patients: 2
  TEAE Blood bilirubin increased, patients: 3
  TEAE Blood bilirubin unconjugated increased, patients: 2
  TEAE Blood creatinine increased, patients: 2
  TEAE Fatigue, patients: 2
  TEAE Haemoglobin decreased, patients: 4
  TEAE Headache, patients: 4
  TEAE Lipase increased, patients: 3
  TEAE Pain, patients: 2
  TEAE Platelet count decreased, patients: 3
  TEAE Proteinuria, patients: 3
  TEAE Vomiting, patients: 3
Total (N = 14), CTCAE Grade ≥3
  TEAE Anaemia, patients: 0
  TEAE Aspartate aminotransferase increased, patients: 0
  TEAE Bilirubin conjugated increased, patients: 1
  TEAE Blood bilirubin increased, patients: 0
  TEAE Blood bilirubin unconjugated increased, patients: 0
  TEAE Blood creatinine increased, patients: 0
  TEAE Fatigue, patients: 0
  TEAE Haemoglobin decreased, patients: 0
  TEAE Headache, patients: 0
  TEAE Lipase increased, patients: 0
  TEAE Pain, patients: 0
  TEAE Platelet count decreased, patients: 0
  TEAE Proteinuria, patients: 0
  TEAE Vomiting, patients: 0
